Laboratory results from patent publication US8846720B2, “Pest controlling composition and method for controlling pest” (Sumitomo Chemical Company, Limited, priority 2010, dated 2014).

Tested on: gray mold fungus (Botrytis cinerea)
Assay: Cucumber leaf disk preventive test against gray mold fungus
Assay type: in vivo
Details: 15° C., six days
Description: True leaf of cucumber was punched out with cork borer to 13 mm in diameter to prepare a leaf disk. In 24 well microwell plate that was dispensed with 1 ml 0.8% water agar, the leaf disk was placed such that the upper side of the leaf was in an upward direction. […] Control where 20 micro liter ion-exchange water was spread was prepared (for non-treated group). After confirming that the spray solution was dried, conidium of gray mold fungus (Botrytis cinerea) was suspended into potato dextrose broth (DIFCO) in a density of about 10^5 conidia/mL and was then subjected to a spray inoculation. After leaving to stand the leaf disk in a growth chamber set up at 15° C. for six days, an onset area on each leaf was measured and a preventive value was then calculated by the following equation 1.
The same above operations were carried out using the present diamide compound (2c) or the present diamide compound (3) instead of the present diamide compound (2b), so as to obtain the respective preventive values. Preventive value(%)=100×(A−B)/A (Equation 1)
A: an onset area rate of plant belonging to non-treated group
B: an onset area rate of plant belonging to treated Group onset area rate=(onset area of the leaf disk)/(the total area of the leaf disk) […]

SMILES: CNC(=O)C(OC)c1ccccc1COc1cc(C)ccc1C (centres unmarked) [the present amide compound]
- preventive value (%) (the present amide compound alone 1.0 ppm (dimethyl sulfoxide solution)): 46%
- preventive value (%) (the present amide compound alone 2.5 ppm (dimethyl sulfoxide solution)): 56%
